Like-named read-outs stand apart in the source and are kept apart here.
Tests used:
[1] = test system: Gram-positive bacteria: Staphylococcus aureus, and Bacillus subtilis; experiment: Minimal inhibitory concentration, agar dilution (Mueller-Hinton), Gram-positive bacteria; format: cell-based; conditions: for Minimum Inhibitory Concentration (MIC): Gram Positive Bacteria Staphylococcus aureus, Staphlyococcus epidermidis, Bacillus subtilis; for visible growth on agar plates: Gram Positive Organisms, concentration 0.3 %
Experimental: Mueller-Hinton is the agar medium used in these studies. Dilutions of materials to be tested were made directly into warm molten agar as described below to achieve the final concentration range (0-6%) shown in the Tables below.
(§1) Agar was prepared as recommended by the manufacturer. Sterilized agar was allowed to cool to 50° C. in a water bath and dispensing an appropriate amount into sterile containers. The agent being tested was added to the agar and thoroughly mixed. Plates were then poured and allowed to solidify at room temperature. All plates were used immediately and not stored.
(§2) A standard inoculating loop was used to deliver and spread the inoculum on the plates. Plates were allowed to dry at room temperature before inverting and incubation. Bacterial plates were incubated at 35° C. for 48 hours while fungal plates were incubated at 25° C. for 72 hours. All plates were visually inspected immediately following incubation and the results recorded.
(§3) The organisms tested were the following: Gram-positive bacteria: Staphylococcus aureus, and Bacillus subtilis; Gram-negative bacteria: Escherichia coli and Pseudomonas aeruginosa; and Fungi: Candida albicans, Asperillus niger and Penicillium notatum.
The results below are expressed as the concentration (%) of agent corresponding to the MIC for each group of organisms tested.

[2] = test system: Gram-negative bacteria: Escherichia coli and Pseudomonas aeruginosa; experiment: Minimal inhibitory concentration, agar dilution (Mueller-Hinton), Gram-negative bacteria; format: cell-based; conditions: for Minimum Inhibitory Concentration (MIC): Gram Negative Bacteria Escherichia coli, Pseudomonas aeruginosa; for visible growth on agar plates: Gram Negative Organisms, concentration 0.3 %
Experimental: (§4) The minimal inhibitory concentration of the composition was determined based on methods as described in the United States Pharmacopiea, National Formulary (“USP, NF”), NF 18, 1995, Microbial Assays and Journal of Applied Microbiology 89(2): 275-279 by testing microorganisms for their ability to produce visible growth on a series of agar plates containing dilutions of the composition. Mueller-Hinton is the agar medium used in these studies. Dilutions of materials to be tested were made directly into warm molten agar as described below to achieve the final concentration range (0-6%) shown in the Tables below.
as §1
as §2, with “Broth cultures (24 hours) were adjusted photometrically to give 10^7 CFU/ml (colony forming units/ml) and the plates were inoculated within 30 minutes of standardizing the inoculum. A standard” for “A standard”
as §3
(§5) The effects of the structure of the polyhydric alcohol, the structure of the carboxylic acid and the extent of alkoxylation on antimicrobial activity were determined using the MIC assay as described in Example 1. The results below are expressed as the concentration (%) of agent corresponding to the MIC for each group of organisms tested.

[3] = test system: Fungi: Candida albicans, Asperillus niger and Penicillium notatum; experiment: Minimal inhibitory concentration, agar dilution (Mueller-Hinton), fungi; format: cell-based
Experimental: as §4, §1
as §2, with “Broth cultures (24 hours) were adjusted photometrically to give 10^7 CFU/ml (colony forming units/ml) and the plates were inoculated within 30 minutes of standardizing the inoculum. A standard” for “A standard”
as §3, §5

[4] = test system: Gram-positive and Gram-negative organisms as well as fungi; experiment: Antimicrobial activity in the MIC assay, all groups of organisms tested; format: cell-based
Experimental: as §4, §1
as §2, with “Broth cultures (24 hours) were adjusted photometrically to give 10^7 CFU/ml (colony forming units/ml) and the plates were inoculated within 30 minutes of standardizing the inoculum. A standard” for “A standard”, “results recorded. […]” for “results recorded.”
as §5

[5] = Safety testing: neat material on forearm of human volunteers under occlusive conditions for 48 hours; format: in vivo; parameters: key to dermal response score (6-point scale): 0=No evidence of any effect; +=Barely perceptible (Minimal, faint, uniform or spotty erythema); 1=Mild (Pink, uniform erythema covering most of the contact site); 2=Moderate (Pink-red erythema uniform in the entire contact site); 3=Marked (Bright re erythema with/without petechiae or papules); 4=Severe (Deep red erythema with/without vesiculation or weeping)
Experimental: The safety of G-18-O was tested using the neat (undiluted) material applied to the forearm of 51 human volunteers under occlusive conditions for 48 hours. These conditions are particularly aggressive, especially when compared with those in the prior art, where data on safety, if disclosed at all, is generally anecdotal using low concentrations of the agent. The dermal responses for G-18-O were scored by expert evaluators under clinical conditions according to the following 6-point scale: • 0=No evidence of any effect; • +=Barely perceptible (Minimal, faint, uniform or spotty erythema); • 1=Mild (Pink, uniform erythema covering most of the contact site); • 2=Moderate (Pink-red erythema uniform in the entire contact site); • 3=Marked (Bright re erythema with/without petechiae or papules); and • 4=Severe (Deep red erythema with/without vesiculation or weeping).

[6] = Solubility in water / oil; format: physicochemical
HLB value = format: physicochemical

Compound | Minimum Inhibitory Concentration (MIC) [1] | Minimum Inhibitory Concentration (MIC) [2] | Minimum Inhibitory Concentration (MIC) [3] | further results
Propylene Glycol-18 Ethylhexanoate | >=6% | >=6% | 1.5% | –
Glycereth-18 [reference compound] | >=6% | >=6% | >=6% | antimicrobial activity [4]: no activity
Glycereth-18 Benzoate | 3% | 3% | >=6% | –
Glycereth-18 Ethylhexanoate [G-18-O] | 0.6% | 0.6% | 1.5% | antimicrobial activity [4]: effective antimicrobial agent; antimicrobial activity ([4]; listed as G-18-0): essentially equal to that of glyceryl caprylate; visible growth on agar plates [1]: 50%; visible growth on agar plates [2]: 50%; dermal response score (6-point scale) ([5]; forearm of 51 human volunteers, occlusive, all panelists): 0; skin irritation ([5]; intimate contact with skin, occlusive conditions): totally non-irritating; water solubility [6]: very water soluble; water solubility ([6]; listed as G-18-0): substantially water-soluble; water solubility ([6]; listed as Glycereth-18 ethylhexanoate): very water-soluble; HLB value (HLB value): greater than 10
CCCCCCCC(=O)OCC(O)CO (centres unmarked) [Glyceryl Caprylate, reference compound] | – | – | – | visible growth on agar plates [1]: 50%; visible growth on agar plates [2]: 50%; oil solubility [6]: substantially oil soluble
Glycereth-18 Pelargonate | >=6% | >=6% | 1.5% | –
Glycereth-7 Ethylhexanoate | 3% | 3% | 1.5% | –
Glycereth-40 Ethylhexanoate | 3% | 3% | 1.5% | –
Glycereth-18 Laurate | 0.6% | 0.6% | >=6% | –
Glycereth-20 Ethylhexanoate | 3% | 3% | 3% | –

Source: patent US20070207104A1, “Antimicrobial esters” (priority 2006, published 2007)
